Counter-ions that a name gives are not always drawn.
Target: human factor IXa (Homo sapiens (Human), UniProt P00740)
Test: Determination of inhibitory activity against factor IXa (SPECTROFLUOR FIXa fluorogenic substrate enzyme assay)
Assay type: biochemical
Conditions: human factor IXa 2.0 μg/ml, SPECTROFLUOR FIXa 100 μM, 60 minutes at room temperature, pH 8.0; read-out: Factor IXa enzyme assay IC50
Procedure: Inhibitory activity against factor IXa was tested using the substrate SPECTROFLUOR FIXa (american diagnostica inc.; 500 West Avenue, Stamford, Conn. 06902 USA; Pr. No. 299F) and human factor IXa (american diagnostica inc.; Pr. No. 449b). Test substances dissolved in buffer A (50 mM α,α,α-tris(hydroxymethyl)methylamine (Tris), 100 mM NaCl, 5 mM CaCl2, 15% (v/v) ethylene glycol, pH 8.0) were mixed with factor IXa (2.0 μg/ml final concentration). The enzyme reaction was started by addition of SPECTROFLUOR FIXa (100 μM final concentration). After incubation for 60 minutes at room temperature, the reaction was stopped by the addition of 20% (v/v) acetic acid solution, and then measured the fluorescence value (Excitation Wavelength: 355 nm, Emission Wavelength; 460 nm) in a microtiter plate reader (ARVO 1420 Multilabel Counter; PerkinElmer).
The IC50 was calculated from a dilution series of the test substance with the aid of the software, Symix Assay Explorer (Symyx Technologies, Inc.).

Chain of human factor IXa (P00740 227-461): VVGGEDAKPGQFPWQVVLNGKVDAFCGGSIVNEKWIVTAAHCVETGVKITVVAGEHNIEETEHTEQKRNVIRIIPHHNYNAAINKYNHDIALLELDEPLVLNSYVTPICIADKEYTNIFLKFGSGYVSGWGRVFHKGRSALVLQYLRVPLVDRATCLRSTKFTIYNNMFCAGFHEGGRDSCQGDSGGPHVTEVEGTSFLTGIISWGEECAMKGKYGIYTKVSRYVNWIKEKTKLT
Chain of human factor IXa (P00740 47-191 partner): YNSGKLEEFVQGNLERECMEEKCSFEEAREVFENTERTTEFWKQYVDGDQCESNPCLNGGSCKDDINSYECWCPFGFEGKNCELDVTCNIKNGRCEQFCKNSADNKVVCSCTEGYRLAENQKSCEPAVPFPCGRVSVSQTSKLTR

Structure (SMILES) | IC50 [nM]
N#Cc1ccccc1N1CCO[C@H]([C@@H](O)C(=O)Nc2ccc3c(c2)CNC3=N)C1=O [Example aa142, 4-(2-Cyanophenyl)-N-(2,3-dihydro-1-imino-1h-isoindol-5-yl)-alpha(R)-hydroxy-3-oxo-2(R)-morpholine acetamide] | 66
Nc1noc2cc(NC(=O)[C@H](O)[C@H]3OCCN(c4ccc(S(F)(F)(F)(F)F)cc4)C3=O)ccc12 [Example aa151, [4-[2(R)-[2-[(3-Amino-1,2-bcnzisoxazol-6-yl)amino]-1(R)-hydroxy-2-oxoethyl]-3-oxo-4-morpholinyl]phenyl] pentafluorosulfur] | 380
N=C1NCc2cc(NC(=O)[C@H](O)[C@H]3OCCN(c4ccc(F)c(C(=O)N5CCOCC5)c4)C3=O)ccc21 [Example aa144, N-(2,3-Dihydro-1-imino-1h-isoindol-5-yl)-4-[4-fluoro-3-(4-morpholinylcarbonyl)phenyl]-alpha(R)-hydroxy-3-oxo-2(R)-morpholineacetamide] | 13
Nc1noc2cc(NC(=O)[C@H](O)[C@H]3OCCN(c4ccc(F)c(C(=O)N5CCOCC5)c4)C3=O)c(F)cc12 [Example aa152, N-(3-Amino-5-fluoro-1,2-benzisoxazol-6-yl)-4-[4-fluoro-3-(4-morpholinylcarbonyl)phenyl]-alpha(R)-hydroxy-3-oxo-2(R)-morpholineacetamide] | 1200

Same assay, conditions: human factor IXa 2.0 μg/ml, SPECTROFLUOR FIXa 100 μM, 60 minutes at room temperature, pH 8.0; read-out: Factor IXa enzyme assay IC50 [micro M]

Structure (SMILES) | IC50 [nM]
CS(=O)(=O)c1ccccc1-c1ccc(N2CCO[C@H]([C@@H](O)C(=O)Nc3ccc(C(=N)N)cc3)C2=O)cc1 [Example 105, (2R)—N-(4-amidinophenyl)-2-hydroxy-2-[(2R)-4-[4-(2-methylsulfonylphenyl)phenyl]-3-oxomorpholin-2-yl]acetamide hydrochloride] | 10
Cc1ccc(N2CCO[C@H]([C@@H](O)C(=O)Nc3ccc4c(N)nccc4c3)C2=O)cc1 [Example 62, (2R)—N-(1-aminoisoquinolin-6-yl)-2-hydroxy-2-[(2R)-3-oxo-4-p-tolylmorpholin-2-yl]acetamide hydrochloride] | 20
CC(=O)N1CCN(c2ccc(C)cc2)C(=O)C1C(O)C(=O)Nc1ccc2c(N)nccc2c1 (stereo not shown) [Example 109, 2-[1-acetyl-3-oxo-4-(p-tolyl)piperazin-2-yl]-N-(1-amino-6-isoquinolyl)-2-hydroxy-acetamide trifluoroacetate] | 60
Cc1ccc(N2CCOC(C(O)C(=O)Nc3ccc4c(N)nccc4c3)C2=O)cc1 (stereo not shown) [Example 1, N-(1-aminoisoquinolin-6-yl)-2-hydroxy-2-(3-oxo-4-p-tolylmorpholin-2-yl)acetamide trifluoroacetate] | 40
Cc1ccc(N2CCCO[C@H]([C@@H](O)C(=O)Nc3ccc(C(=N)N)cc3)C2=O)cc1 [Example 114, (2R)—N-(4-amidinophenyl)-2-hydroxy-2-[(2R)-3-oxo-4-(p-tolyl)-1,4-oxazepan-2-yl]acetamide hydrochloride] | 30
N=C(N)c1ccc(NC(=O)[C@H](O)[C@H]2OCCN(c3ccc(C4CCCCC4)cc3)C2=O)cc1 [Example 15, (2R)—N-(4-amidinophenyl)-2-[(2R)-4-(4-cyclohexylphenyl)-3-oxomorpholin-2-yl]-2-hydroxyacetamide hydrochloride] | 20
CC(C)(C)c1ccc(N2CCO[C@H]([C@@H](O)C(=O)Nc3ccc(C(=N)N)cc3F)C2=O)cc1 [Example 67, (2R)—N-(4-amidino-2-fluorophenyl)-2-[(2R)-4-(4-tert-butylphenyl)-3-oxomorpholin-2-yl]-2-hydroxyacetamide acetate] | 60
Cc1ccc(N2CCOC(C(O)C(=O)Nc3ccc(C(=N)N)cc3)C2=O)cc1 (stereo not shown) [Example 2, N-(4-amidinophenyl)-2-hydroxy-2-(3-oxo-4-p-tolylmorpholin-2-yl)acetamide trifluoroacetate] | 30
N=C(N)c1ccc(NC(=O)[C@H](O)[C@H]2OCCN(c3cccc(NC(=O)CO)c3)C2=O)cc1 [Example 50, (2R)—N-(4-amidinophenyl)-2-hydroxy-2-[(2R)-4-[3-[(2-hydroxyacetyl)amino]phenyl]-3-oxomorpholin-2-yl]acetamide hydrochloride] | 20

Reference: patent US8987242B2, “Morpholinone compounds as factor IXA inhibitors” (Merck Sharp & Dohme Corp., priority 2008, dated 2015)
